Test results as given in patent US20040043380A1, “T cell line and use thereof” (priority 2000, published 2004).
Like-named read-outs stand apart in the source and are kept apart here.

Tested on: HIV-1 BaL strain
Assay: Anti-HIV-1 activity: alkaline phosphatase reporter in MOLT-4/CCR5/LTR-SEAP cells infected with HIV-1 BaL strain
Type: cell-based
Conditions: for EC90: read-out: EC90 (activity of inhibiting viral growth by 90%); for EC50: read-out: EC50 (activity of inhibiting viral growth by 50%)
Procedure: The alkaline phosphatase activity was measured by using Great EscAPe SEAP Detection Kit manufactured by Clontech. Fifty microliters of a diluent was added to 15 μl of the culture supernatant and incubated at 65° C. for 30 minutes. The reaction solution was cooled to room temperature, and then 50 μl of the reaction solution was transferred to a white plate, and 50 μl of an assay buffer was added thereto and incubated at room temperature for 5 minutes. Fifty microliters of a luminescence substrate was added thereto, incubated at room temperature for 10 minutes, and measured for chemiluminescence by a luminometer.
A mixture of 2×10^4of MOLT-4/CCR5/LTR-SEAP cells, 1000 CCID50 (cell culture infective dose 50%) of the virus and a test compound (Table 1) at various concentrations was cultured at 37° C. in 5% CO2 gas for 5 days. A quarter of the culture was subcultured for 5 days. On the tenth day after the infection, the culture supernatant was recovered, and the alkaline phosphatase activity was measured. The anti-HIV-1 activity (the inhibition rate) of a test compound was calculated from the following formula:
Inhibition rate (%)=(1−(chemiluminescence^1/chemiluminescence^2))×100
Chemiluminescence^1=chemiluminescence with addition of a test compound (ii)−chemiluminescence without viral infection (iii).
Chemiluminescence^2=chemiluminescence without addition of a test compound (i)−chemiluminescence without viral infection (iii).

[1] = Human immunodeficiency virus 1, BAL
[2] = MOLT-4/CCR5/LTR-SEAP cells, 1000 CCID50 HIV-1 BaL strain, alkaline phosphatase activity in culture supernatant on tenth day after infection

Structure (SMILES): Cc1ccnc2c1NC(=O)c1cccnc1N2C1CC1 [Compound 2, 11-cyclopropyl-5,11-dihydro-4-methyl-6H-dipyrido[3,2-b:2′,3′-e] [1,4]diazepin-6-one]
- EC90 [1]: 0.35 µM
- EC50 (Human immunodeficiency virus 1, MOLT-4/CCR5/LTR-SEAP cells, 1000 CCID50 HIV-1 BaL strain, alkaline phosphatase activity in culture supernatant on tenth day after infection): 0.04 µM

Structure (SMILES): Cc1c(O)cccc1C(=O)N[C@@H](CSc1ccccc1)[C@H](O)CN1C[C@H]2CCCC[C@H]2C[C@H]1C(=O)NC(C)(C)C [Compound 3, (-)-(3S,4aS,8aS)-N-tert-butyl-2-[(2R,3R)-2-hydroxy-3-(3-hydroxy-2-methylbenzoylamino)-4-(phenylthio)butyl]decahydroisoquinoline-3-carboxamide monomethanesulfonate]
- EC50 [1]: 0.00067 µM
- EC90 [1]: 0.17 µM

Structure (SMILES): Cc1cn([C@H]2C=C[C@@H](CO)O2)c(=O)[nH]c1=O [Compound 1, 2′,3′-didehydro-3′-deoxythymidine]
- EC50 [1]: 0.016 µM
- EC90 [1]: 0.26 µM

Structure (SMILES): Cc1ccc(-c2ccc3c(c2)C=C(C(=O)Nc2ccc(C[N+](C)(C)C4CCOCC4)cc2)CCC3)cc1 [Compound 4, N,N-dimethyl-N-(4-(((2-(4-methylphenyl)-6,7-dihydro-5H-benzocyclohepten-8-yl)carbonyl)-N-(4-tetrahydropyranyl)ammonium chloride]
- EC50 [2]: 0.021 µM
- EC90 [2]: 0.68 µM
